Tested on: 958667-338-R-J2-PDC tumor spheroids viability
Experiment: Anticancer human tumor 958667-338-R-J2-PDC patient-derived colon adenocarcinoma cell line growth inhibition [PI3K]
Conditions: spheroids with HUVEC and MSC; for IC50: curve of first compound; for viability, T/C: stronger effect = lower value; active = viability on the fitted dose curve at most 10% of control; inactive = the rest
Outline: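 Three cell types, namely tumor cells, endothelial cells and mesenchymal stem cells, formed each spheroid. Combinations with four PI3K inhibitors were screened at clinically achievable concentrations decreasing by half-log, and spheroid viability was recorded.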

[1] = second compound 0.0316 µM, first compound 0.000316 µM
[2] = second compound 0.0316 µM, first compound 0.001 µM
[3] = second compound 0.0316 µM, first compound 0.00316 µM
[4] = second compound 0.0316 µM, first compound 0.01 µM
[5] = second compound 0.0316 µM, first compound 0.0316 µM
[6] = second compound 0.0316 µM, first compound 0.1 µM
[7] = second compound 0.1 µM, first compound 0.000316 µM
[8] = second compound 0.1 µM, first compound 0.001 µM
[9] = second compound 0.1 µM, first compound 0.00316 µM
[10] = second compound 0.1 µM, first compound 0.01 µM
[11] = second compound 0.1 µM, first compound 0.0316 µM
[12] = second compound 0.1 µM, first compound 0.1 µM
[13] = second compound 0.316 µM, first compound 0.000316 µM
[14] = second compound 0.316 µM, first compound 0.001 µM
[15] = second compound 0.316 µM, first compound 0.00316 µM
[16] = second compound 0.316 µM, first compound 0.01 µM
[17] = second compound 0.316 µM, first compound 0.0316 µM
[18] = second compound 0.316 µM, first compound 0.1 µM
[19] = second compound 1 µM, first compound 0.000316 µM
[20] = second compound 1 µM, first compound 0.001 µM
[21] = second compound 1 µM, first compound 0.00316 µM
[22] = second compound 1 µM, first compound 0.01 µM
[23] = second compound 1 µM, first compound 0.0316 µM
[24] = second compound 1 µM, first compound 0.1 µM
[25] = second compound 3.16 µM, first compound 0.000316 µM
[26] = second compound 3.16 µM, first compound 0.001 µM
[27] = second compound 3.16 µM, first compound 0.00316 µM
[28] = second compound 3.16 µM, first compound 0.01 µM
[29] = second compound 3.16 µM, first compound 0.0316 µM
[30] = second compound 3.16 µM, first compound 0.1 µM
[31] = second compound 10 µM, first compound 0.000316 µM
[32] = second compound 10 µM, first compound 0.001 µM
[33] = second compound 10 µM, first compound 0.00316 µM
[34] = second compound 10 µM, first compound 0.01 µM
[35] = second compound 10 µM, first compound 0.0316 µM
[36] = second compound 10 µM, first compound 0.1 µM
[37] = second compound 0.0316 µM, first compound 0.316 µM
[38] = second compound 0.0316 µM, first compound 1 µM
[39] = second compound 0.0316 µM, first compound 3.16 µM
[40] = second compound 0.0316 µM, first compound 10 µM
[41] = second compound 0.1 µM, first compound 0.316 µM
[42] = second compound 0.1 µM, first compound 1 µM
[43] = second compound 0.1 µM, first compound 3.16 µM
[44] = second compound 0.1 µM, first compound 10 µM
[45] = second compound 0.316 µM, first compound 0.316 µM
[46] = second compound 0.316 µM, first compound 1 µM
[47] = second compound 0.316 µM, first compound 3.16 µM
[48] = second compound 0.316 µM, first compound 10 µM
[49] = second compound 1 µM, first compound 0.316 µM
[50] = second compound 1 µM, first compound 1 µM
[51] = second compound 1 µM, first compound 3.16 µM
[52] = second compound 1 µM, first compound 10 µM
[53] = second compound 3.16 µM, first compound 0.316 µM
[54] = second compound 3.16 µM, first compound 1 µM
[55] = second compound 3.16 µM, first compound 3.16 µM
[56] = second compound 3.16 µM, first compound 10 µM
[57] = second compound 10 µM, first compound 0.316 µM
[58] = second compound 10 µM, first compound 1 µM
[59] = second compound 10 µM, first compound 3.16 µM
[60] = second compound 10 µM, first compound 10 µM
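Also: spheroids exposed to compounds for seven days before readout.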

CC(=O)c1c(C)c2cnc(Nc3ccc(N4CCNCC4)cn3)nc2n(C2CCCC2)c1=O + Cc1nc(NC(=O)N2CCCC2C(N)=O)sc1-c1ccnc(C(C)(C)C(F)(F)F)c1
inactive: viability, T/C [1] 104% | viability, T/C [2] 77.1% | viability, T/C [3] 96% | viability, T/C [4] 94.3% | viability, T/C [5] 95.8% | viability, T/C [6] 73.7% | viability, T/C [7] 97.2% | viability, T/C [8] 96.8% | viability, T/C [9] 106% | viability, T/C [10] 88.7% | viability, T/C [11] 103% | viability, T/C [12] 94.7% | viability, T/C [13] 104% | viability, T/C [14] 83.1% | viability, T/C [15] 84.4% | viability, T/C [16] 91.5% | viability, T/C [17] 78.1% | viability, T/C [18] 73.7% | viability, T/C [19] 87.8% | viability, T/C [20] 78.5% | viability, T/C [21] 73.4% | viability, T/C [22] 62.2% | viability, T/C [23] 74.5% | viability, T/C [24] 66.2% | viability, T/C [25] 72% | viability, T/C [26] 74% | viability, T/C [27] 59.3% | viability, T/C [28] 67.2% | viability, T/C [29] 70.3% | viability, T/C [30] 71.9% | viability, T/C [31] 52.8% | viability, T/C [32] 55.5% | viability, T/C [33] 52.2% | viability, T/C [34] 55.4% | viability, T/C [35] 51.4% | viability, T/C [36] 58.5%
> 0.1 µM: IC50 (second compound 0.0316 µM) | IC50 (second compound 0.1 µM) | IC50 (second compound 0.316 µM) | IC50 (second compound 1 µM) | IC50 (second compound 3.16 µM) | IC50 (second compound 10 µM)

CC(C)n1nc(-c2ccc3oc(N)nc3c2)c2c(N)ncnc21 + Cc1nc(NC(=O)N2CCCC2C(N)=O)sc1-c1ccnc(C(C)(C)C(F)(F)F)c1
0.0419 µM: IC50 (second compound 1 µM)
0.0617 µM: IC50 (second compound 0.0316 µM)
0.0606 µM: IC50 (second compound 0.1 µM)
0.0302 µM: IC50 (second compound 3.16 µM)
inactive: viability, T/C [1] 94% | viability, T/C [2] 91.7% | viability, T/C [3] 80.9% | viability, T/C [4] 77.8% | viability, T/C [5] 61.1% | viability, T/C [6] 41.4% | viability, T/C [7] 102% | viability, T/C [8] 85.8% | viability, T/C [9] 108% | viability, T/C [10] 73.7% | viability, T/C [11] 76.5% | viability, T/C [12] 33.1% | viability, T/C [13] 77.3% | viability, T/C [14] 89.3% | viability, T/C [15] 80.5% | viability, T/C [16] 82.2% | viability, T/C [17] 71.5% | viability, T/C [18] 32% | viability, T/C [19] 70% | viability, T/C [20] 68.1% | viability, T/C [21] 74.5% | viability, T/C [22] 79% | viability, T/C [23] 56% | viability, T/C [24] 31.4% | viability, T/C [25] 72% | viability, T/C [26] 73.8% | viability, T/C [27] 73.2% | viability, T/C [28] 57.5% | viability, T/C [29] 52% | viability, T/C [30] 24.3% | viability, T/C [31] 56% | viability, T/C [32] 51.5% | viability, T/C [33] 39.8% | viability, T/C [34] 52.9% | viability, T/C [35] 34.3% | viability, T/C [36] 21.1%
0.0022 µM: IC50 (second compound 10 µM)
0.0595 µM: IC50 (second compound 0.316 µM)

CC1(C)CCC(CN2CCN(c3ccc(C(=O)NS(=O)(=O)c4ccc(NCC5CCOCC5)c([N+](=O)[O-])c4)c(Oc4cnc5[nH]ccc5c4)c3)CC2)=C(c2ccc(Cl)cc2)C1 + Cc1nc(NC(=O)N2CCCC2C(N)=O)sc1-c1ccnc(C(C)(C)C(F)(F)F)c1
5.32 µM: IC50 (second compound 3.16 µM)
7.01 µM: IC50 (second compound 0.0316 µM)
4.21 µM: IC50 (second compound 10 µM)
6.91 µM: IC50 (second compound 1 µM)
inactive: viability, T/C [5] 88.8% | viability, T/C [6] 95% | viability, T/C [37] 83.5% | viability, T/C [38] 123% | viability, T/C [39] 97.1% | viability, T/C [40] 29.1% | viability, T/C [11] 90.4% | viability, T/C [12] 93.2% | viability, T/C [41] 99.4% | viability, T/C [42] 99.8% | viability, T/C [43] 107% | viability, T/C [44] 24.8% | viability, T/C [17] 93.3% | viability, T/C [18] 85.8% | viability, T/C [45] 104% | viability, T/C [46] 99% | viability, T/C [47] 98.5% | viability, T/C [48] 25.7% | viability, T/C [23] 88.9% | viability, T/C [24] 72.6% | viability, T/C [49] 93.3% | viability, T/C [50] 87.6% | viability, T/C [51] 91.1% | viability, T/C [52] 32.5% | viability, T/C [29] 89.3% | viability, T/C [30] 76.8% | viability, T/C [53] 67% | viability, T/C [54] 76.5% | viability, T/C [55] 66.6% | viability, T/C [56] 31.4% | viability, T/C [35] 65.7% | viability, T/C [36] 64.6% | viability, T/C [57] 55.8% | viability, T/C [58] 61.5% | viability, T/C [59] 65.7% | viability, T/C [60] 12%
6.73 µM: IC50 (second compound 0.1 µM)
6.72 µM: IC50 (second compound 0.316 µM)

CCCS(=O)(=O)Nc1ccc(F)c(C(=O)c2c[nH]c3ncc(-c4ccc(Cl)cc4)cc23)c1F + Cc1nc(NC(=O)N2CCCC2C(N)=O)sc1-c1ccnc(C(C)(C)C(F)(F)F)c1
4.35 µM: IC50 (second compound 10 µM)
5.17 µM: IC50 (second compound 0.316 µM)
5.49 µM: IC50 (second compound 0.1 µM)
5.75 µM: IC50 (second compound 0.0316 µM)
active: viability, T/C [40] 7.09% | viability, T/C [44] 9.01% | viability, T/C [48] 8.6% | viability, T/C [60] 9.34%
inactive: viability, T/C [5] 106% | viability, T/C [6] 87.6% | viability, T/C [37] 89.8% | viability, T/C [38] 86.1% | viability, T/C [39] 111% | viability, T/C [11] 96.3% | viability, T/C [12] 91.9% | viability, T/C [41] 82.2% | viability, T/C [42] 77.2% | viability, T/C [43] 90.2% | viability, T/C [17] 90.7% | viability, T/C [18] 78.6% | viability, T/C [45] 70.8% | viability, T/C [46] 77.7% | viability, T/C [47] 85.5% | viability, T/C [23] 79.5% | viability, T/C [24] 84.5% | viability, T/C [49] 86% | viability, T/C [50] 70.8% | viability, T/C [51] 80.5% | viability, T/C [52] 32.7% | viability, T/C [29] 57% | viability, T/C [30] 66.4% | viability, T/C [53] 75.9% | viability, T/C [54] 49.3% | viability, T/C [55] 74.3% | viability, T/C [56] 20.7% | viability, T/C [35] 58.1% | viability, T/C [36] 66.9% | viability, T/C [57] 60.8% | viability, T/C [58] 67.9% | viability, T/C [59] 74.1%
6.58 µM: IC50 (second compound 1 µM)
4.64 µM: IC50 (second compound 3.16 µM)
